Numbers after ± are expanded uncertainties.
Test: refractive index (other wavelength) (dimensionless); xn = mol fraction of the nth substance listed
Conditions: 101 kPa, Liquid, Standard Abbe refractometry

CC(C)Cc1ccccc1 [(2-methylpropyl)benzene] + CCCCCCCCCCCC
refractive index
Conditions	x1 = 0.1014	x1 = 0.2024	x1 = 0.3032	x1 = 0.4036	x1 = 0.5038	x1 = 0.6036	x1 = 0.7032	x1 = 0.8024	x1 = 0.9014
308.15 K, Wavelength=436.1 nm	1.43035 ± 0.00073	1.43663 ± 0.00074	1.44293 ± 0.00076	1.44977 ± 0.00075	1.45671 ± 0.00075	1.46416 ± 0.00076	1.47181 ± 0.00076	1.47955 ± 0.00077	1.48775 ± 0.00078
308.15 K, Wavelength=513.9 nm	1.42401 ± 0.00072	1.42966 ± 0.00073	1.43562 ± 0.00075	1.44199 ± 0.00074	1.44841 ± 0.00074	1.45531 ± 0.00075	1.46239 ± 0.00075	1.46958 ± 0.00076	1.47731 ± 0.00075
308.15 K, Wavelength=589.3 nm	1.42043 ± 0.00072	1.42581 ± 0.00073	1.43152 ± 0.00074	1.43762 ± 0.00073	1.44375 ± 0.00073	1.45034 ± 0.00074	1.45708 ± 0.00074	1.46398 ± 0.00075	1.47126 ± 0.00075
308.15 K, Wavelength=633.2 nm	1.41894 ± 0.00072	1.42433 ± 0.00072	1.42979 ± 0.00074	1.4358 ± 0.00073	1.44178 ± 0.00073	1.44827 ± 0.00074	1.45488 ± 0.00074	1.46165 ± 0.00074	1.46871 ± 0.00075
308.15 K, Wavelength=657.2 nm	1.41824 ± 0.00072	1.42395 ± 0.00074	1.42984 ± 0.00072	1.43554 ± 0.00075	1.44115 ± 0.00074	1.44715 ± 0.00074	1.45387 ± 0.00073	1.46065 ± 0.00074	1.46758 ± 0.00075
313.15 K, Wavelength=436.1 nm	1.42808 ± 0.00073	1.43404 ± 0.00073	1.44059 ± 0.00076	1.4473 ± 0.00075	1.45448 ± 0.00076	1.46172 ± 0.00076	1.46924 ± 0.00077	1.47706 ± 0.00077	1.48511 ± 0.00078
313.15 K, Wavelength=513.9 nm	1.42179 ± 0.00072	1.42725 ± 0.00073	1.43332 ± 0.00074	1.43955 ± 0.00074	1.44611 ± 0.00073	1.45293 ± 0.00075	1.4599 ± 0.00076	1.46712 ± 0.00076	1.47502 ± 0.00075
313.15 K, Wavelength=589.3 nm	1.41826 ± 0.00072	1.42345 ± 0.00073	1.42938 ± 0.00075	1.4352 ± 0.00073	1.44159 ± 0.00074	1.44797 ± 0.00074	1.45466 ± 0.00075	1.46154 ± 0.00075	1.46878 ± 0.00077
313.15 K, Wavelength=633.2 nm	1.41677 ± 0.00072	1.42191 ± 0.00072	1.42752 ± 0.00074	1.43336 ± 0.00073	1.43965 ± 0.00074	1.4459 ± 0.00074	1.45247 ± 0.00074	1.45924 ± 0.00075	1.46652 ± 0.00076
313.15 K, Wavelength=657.2 nm	1.41612 ± 0.00072	1.42149 ± 0.0007	1.42761 ± 0.0007	1.43304 ± 0.00073	1.43882 ± 0.00072	1.44496 ± 0.00074	1.45159 ± 0.00073	1.45817 ± 0.00074	1.46515 ± 0.00075
318.15 K, Wavelength=436.1 nm	1.42579 ± 0.00073	1.43204 ± 0.00071	1.43791 ± 0.00073	1.44498 ± 0.00075	1.4518 ± 0.00076	1.45921 ± 0.00076	1.46673 ± 0.00075	1.47452 ± 0.00076	1.48247 ± 0.00078
318.15 K, Wavelength=513.9 nm	1.41953 ± 0.00064	1.42512 ± 0.00065	1.43094 ± 0.00067	1.43729 ± 0.00065	1.44389 ± 0.00066	1.45049 ± 0.00066	1.45744 ± 0.00066	1.46465 ± 0.00065	1.47245 ± 0.00064
318.15 K, Wavelength=589.3 nm	1.41596 ± 0.0007	1.42122 ± 0.00069	1.42669 ± 0.00073	1.43297 ± 0.00071	1.43898 ± 0.00073	1.44556 ± 0.00072	1.45224 ± 0.00072	1.4591 ± 0.00072	1.46615 ± 0.00071
318.15 K, Wavelength=633.2 nm	1.41454 ± 0.00072	1.41993 ± 0.00068	1.425 ± 0.00068	1.43114 ± 0.0007	1.4371 ± 0.00073	1.44352 ± 0.00074	1.45008 ± 0.00072	1.45679 ± 0.00073	1.46372 ± 0.00078
318.15 K, Wavelength=657.2 nm	1.41386 ± 0.00072	1.41979 ± 0.00066	1.42574 ± 0.00071	1.43091 ± 0.00069	1.43665 ± 0.00071	1.44244 ± 0.00071	1.44935 ± 0.00073	1.45594 ± 0.00072	1.46262 ± 0.00076
